US12428399B2, “Non-hygroscopic crystalline salts of a pyrazole compound, and pharmaceutical compositions and use thereof” (Yissum Research Development Company of the Hebrew …, priority 2019, dated 2025)
Where a name gives a salt, the structure may show the parent alone. Read-outs that look alike come from different tables or passages of the source.

How the values were obtained:
[1] = Dynamic vapor sorption (DVS) analysis of salts; type: physicochemical; settings: for loss upon drying at 5% RH / gain from 5 to 95% RH / loss from 95 to 5% RH: DVS isotherm graph; for gain from 5 to 95% RH: adsorption cycle; for loss from 95 to 5% RH: desorption cycle
Protocol: The crystalline adipate, benzoate, and tosylate salts were characterized with XRPD, DSC, TGA, and DVS. The DVS analyses were carried out using TA Instruments Q5000 Dynamic Vapor Sorption analyzer. The instrument was calibrated with standard weights and a sodium bromide standard for humidity.

[2] = Solubility by aliquot addition of test solvent with visual inspection; type: physicochemical; settings: solution from solubility test
Text: Whether dissolution had occurred was judged by visual inspection after addition of each solvent aliquot.

[3] = tested on: acute myeloid leukemia (AML); settings: AML mouse models and human-patient-derived xenograph mouse models; cited from earlier work
[4] = Bulk density of the ditosylate salt; type: physicochemical
[5] = tested on: Ser 45 β-catenin phosphorylation; p53 and β-catenin protein expression; settings: cited from earlier work
CK1α = CK1α (Homo sapiens, UniProt P48729); settings: cited from earlier work
Chain of CK1α (P48729 whole entry): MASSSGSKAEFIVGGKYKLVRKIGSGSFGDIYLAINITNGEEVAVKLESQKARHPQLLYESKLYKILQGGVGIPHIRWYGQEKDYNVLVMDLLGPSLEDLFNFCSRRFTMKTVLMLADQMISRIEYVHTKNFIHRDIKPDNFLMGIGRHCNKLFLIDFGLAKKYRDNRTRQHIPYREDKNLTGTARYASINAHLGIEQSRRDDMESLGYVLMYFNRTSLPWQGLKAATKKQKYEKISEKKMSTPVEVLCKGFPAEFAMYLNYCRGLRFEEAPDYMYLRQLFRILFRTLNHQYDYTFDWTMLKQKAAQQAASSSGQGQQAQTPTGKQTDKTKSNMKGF

Myc, MDM2, and MCL1 = settings: cited from earlier work
[6] = indicated by DVS isotherm graph

Compound: Cn1ncc(-c2nc(NC3CCC(N)CC3)ncc2Cl)c1CC1CC1 (stereo not drawn) [benzoate salt, (1r,4r)-N^1-(5-chloro-4-(5-(cyclopropylmethyl)-1-methyl-1H-pyrazol-4-yl)pyrimidin-2-yl)cyclohexane-1,4-diamine]
- loss upon drying at 5% RH [1]: 0.02%
- gain from 5 to 95% RH [1]: 1.20%
- loss from 95 to 5% RH [1]: 1.30%
- pH of Solution ([2]; listed as Benzoate): 4.31

Compound: Cl.Cl.Cn1ncc(-c2nc(N[C@H]3CC[C@H](N)CC3)ncc2Cl)c1CC1CC1 [dihydrochloride salt, (1r,4r)-N^1-(5-chloro-4-(5-(cyclopropylmethyl)-1-methyl-1H-pyrazol-4-yl)pyrimidin-2-yl)cyclohexane-1,4-diamine dihydrochloride, reference compound]
- loss upon drying at 5% RH [1]: 1.2%
- gain from 5 to 95% RH [1]: 17%
- loss from 95 to 5% RH [1]: 16%
- hygroscopicity ([1]; background statement, no method given there): highly hygroscopic
- hygroscopicity [1, 6]: highly hygroscopic
- pH of Solution [2]: 1.55
- treating acute myeloid leukemia (AML) [3]: effective

Compound: Cn1ncc(-c2nc(NC3CCC(N)CC3)ncc2Cl)c1CC1CC1 (stereo not drawn) [ditosylate salt, (1r,4r)-N^1-(5-chloro-4-(5-(cyclopropylmethyl)-1-methyl-1H-pyrazol-4-yl)pyrimidin-2-yl)cyclohexane-1,4-diamine]
- bulk density [4]: 0.377 g/mL
- Assay by HPLC (as free base) (25° C./60% RH, 6-Month): 100.5 % w/w
- Purity by HPLC (25° C./60% RH, 6-Month): 99.8 % area
- Water contectnt by Karl Fisher (25° C./60% RH, 6-Month): 0.41 % w/w
- pTSA content by HPLC (25° C./60% RH, 6-Month): 48.6 % w/w
- Assay by HPLC (as free base) (25° C./60% RH, Initial): 100.5 % w/w
- Purity by HPLC (25° C./60% RH, Initial): 99.8 % area
- Water contectnt by Karl Fisher (25° C./60% RH, Initial): 0.41 % w/w
- pTSA content by HPLC (25° C./60% RH, Initial): 49.9 % w/w
- Assay by HPLC (as free base) (40° C./75% RH, 6-Month): 100.3 % w/w
- Purity by HPLC (40° C./75% RH, 6-Month): 99.8 % area
- Water contectnt by Karl Fisher (40° C./75% RH, 6-Month): 0.58 % w/w
- pTSA content by HPLC (40° C./75% RH, 6-Month): 49.5 % w/w
- Assay by HPLC (as free base) (40° C./75% RH, Initial): 100.5 % w/w
- Purity by HPLC (40° C./75% RH, Initial): 99.8 % area
- Water contectnt by Karl Fisher (40° C./75% RH, Initial): 0.41 % w/w
- pTSA content by HPLC (40° C./75% RH, Initial): 49.9 % w/w
- hygroscopicity [1, 6]: not hygroscopic
- pH of Solution [2]: 5.82

Compound: Cn1ncc(-c2nc(N[C@H]3CC[C@H](N)CC3)ncc2Cl)c1CC1CC1 [the Compound, (1r,4r)-N^1-(5-chloro-4-(5-(cyclopropylmethyl)-1-methyl-1H-pyrazol-4-yl)pyrimidin-2-yl)cyclohexane-1,4-diamine]
- Ser 45 β-catenin phosphorylation [5]: reduces
- p53 and β-catenin protein expression [5]: increases
- CK1α inhibition (CK1α): inhibitor
- expression of key cancer initiating genes, including Myc, MDM2, and MCL1 (Myc, MDM2, and MCL1): significantly reduces

Compound: (1r,4r)-N^1-(5-chloro-4-(5-(cyclopropylmethyl)-1-methyl-1H-pyrazol-4-yl)pyrimidin-2-yl)cyclohexane-1,4-diamine [adipate salt]
- loss upon drying at 5% RH [1]: 0.05%
- gain from 5 to 95% RH [1]: 1.05%
- loss from 95 to 5% RH [1]: 1.11%
- hygroscopicity [1, 6]: not hygroscopic
- pH of Solution [2]: 4.73
